From patent publication US20110034371A1, “L. CASEI RHAMNOSUS SECRETED FACTORS AND USE THEREOF” (priority 2009, published 2011)

Columns and labels:
THP-1 cells = assay: Annexin V-FITC and PI staining, flow cytometry: apoptosis of THP-1 cells; assay type: cell-based, human
Method: (§1) Lymphocytes, monocytes and THP-1 cells (10^6 per test) were collected after incubation with LcrS, 3.125-25 μg mL^−1, for various times. After washing twice with PBS, the cells were resuspended in Annexin V binding buffer (10 mM HEPES-NaOH (pH 7.4), 140 mM NaCl, and 2.5 mM CaCl2). After centrifugation, the cells were incubated in 500 μl of the same buffer containing 1.25 it FITC-conjugated Annexin V (BD PharMingen, San Diego, Calif., USA) at room temperature for 15 min in the dark. Data acquisition and analysis were performed by the Becton-Dickinson FACSan flow cytometer (Franklin Lakes, N.J., USA) using CellQuest software (Becton-Dickinson, Oxford, UK). […]
as §1, with “500 W” for “500 μl”, “1.25 μl” for “1.25 it”
as §1, with “1.25 μl” for “1.25 it”
The TGF-β regulates a wide variety of biological functions including apoptosis. The TGF-β production was increasing in the LcrS5-30 treated THP-1 cells. It was reasonable to postulate that apoptosis might be triggered by TGF-β rather than the LcrS5-30. To confirm this assumption, a pharmacological inhibitor, SB431542, would be applied. The percentages of apoptotic cells in 10 ng mL^−1 and 1 ng mL^−1 TGF-β exposed preparations were 18.9±0.44% and 16.57±0.67%, respectively (FIG. 8B). Treatment with 12.5 μg mL^−1 or 25 μg mL^−1 of the LcrS5-30 induced dissimilar level of apoptosis of THP-1 cells that were 26.35±0.77% and 74.96±0.38%, respectively.

[1] = test system: human peripheral blood T cells; settings: 18 h culture, 5 μg mL^−1; cited from earlier work

Compound: NC(=O)c1ccc(-c2nc(-c3ccc4c(c3)OCO4)c(-c3ccccn3)[nH]2)cc1 [SB-431542]
- blocking of TGF-β1-induced apoptosis (THP-1 cells; 1 μg mL^−1 inhibitor, 24 h): significantly blocked
- blocking of apoptosis (THP-1 cells; 1 μg mL^−1 inhibitor, 24 h): significantly blocked

Compound: TGF-β: anti-inflammatory cytokine applied to THP-1 cells at 1 and 10 ng mL^−1
- percentage of apoptotic cells (THP-1 cells; 1 ng mL^−1, 24 h): 16.57±0.67%
- percentage of apoptotic cells (THP-1 cells; 10 ng mL^−1, 24 h): 18.9±0.44%
- induced apoptosis in the presence of TGF-β inhibitor SB431542 (THP-1 cells; One ng mL^−1, 1 μg mL^−1 SB431542, 24 h): SB431542 sensitive

Compound: infliximab
- killing activity (as much as) [1]: ≤ 50.6%
